Several values for one entry are separate records, joined by “and”; a condition that tells them apart may be missing. Identical values can stand only once. Records with an inconclusive call do not appear. The calls were made as follows: active = survival T/C of 150% or more; inactive = T/C below 125% in these data.
Test system: BDF1 mice, s.c. Lewis lung carcinoma, T/C %
Assay: NCI In Vivo Anticancer Drug Screen. Data for tumor model Lewis Lung Carcinoma (subcutaneous) in B6D2F1 (BDF1) mice
In short: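 The value reflects a ratio in which the treated cohort's survival time or tumour size is compared against mice receiving only vehicle.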

Measured: T/C

O=NN(CCCl)C(=O)NC1CCCCC1
48 % of control: endpoint: median tumor weight (est.), dose: 25.0 mg/kg/injection, schedule: Q01DX001 (ip), vehicle: Klucel (hydroxypropylcellulose) (HPC), higher = larger tumour
88 % of control: endpoint: median tumor weight (est.), dose: 12.5 mg/kg/injection, schedule: Q01DX001 (ip), vehicle: Klucel (hydroxypropylcellulose) (HPC), higher = larger tumour
3 % of control: endpoint: median tumor weight (est.), dose: 16.0 mg/kg/injection, schedule: Q01DX009 (ip), vehicle: Klucel (hydroxypropylcellulose) (HPC), higher = larger tumour
active: endpoint: median survival time, dose: 0.12 mg/kg/injection, schedule: Q08HX024 (ip), vehicle: saline, higher = longer survival 181 % of control | endpoint: median survival time, dose: 0.25 mg/kg/injection, schedule: Q08HX024 (ip), vehicle: saline, higher = longer survival 182 % of control | endpoint: median survival time, dose: 12.5 mg/kg/injection, schedule: Q01DX001 (ip), vehicle: saline with Tween-80, higher = longer survival 158 % of control | endpoint: median survival time, dose: 18.9 mg/kg/injection, schedule: Q01DX001 (ip), vehicle: other, higher = longer survival 150 % of control | endpoint: median survival time, dose: 33.0 mg/kg/injection, schedule: Q06DX002 (ip), vehicle: carboxymethylcellulose (CMC), higher = longer survival 180 % of control | endpoint: median survival time, dose: 37.8 mg/kg/injection, schedule: Q01DX001 (ip), vehicle: other, higher = longer survival 160 % of control | endpoint: median survival time, dose: 50.0 mg/kg/injection, schedule: Q06DX002 (ip), vehicle: carboxymethylcellulose (CMC), higher = longer survival 151 % of control | endpoint: median survival time, dose: 100.0 mg/kg/injection, schedule: Q01DX001 (ip), vehicle: saline with Tween-80, higher = longer survival 154 % of control
72 % of control: endpoint: median tumor weight (est.), dose: 19.0 mg/kg/injection, schedule: Q01DX001 (ip), vehicle: carboxymethylcellulose (CMC), higher = larger tumour
34 % of control: endpoint: median tumor weight (est.), dose: 57.0 mg/kg/injection, schedule: Q01DX001 (ip), vehicle: carboxymethylcellulose (CMC), higher = larger tumour
inactive: endpoint: median survival time, dose: 0.12 mg/kg/injection, schedule: Q08HX024 (ip), vehicle: Klucel (hydroxypropylcellulose) (HPC), higher = longer survival 91 % of control | endpoint: median survival time, dose: 0.25 mg/kg/injection, schedule: Q08HX024 (ip), vehicle: Klucel (hydroxypropylcellulose) (HPC), higher = longer survival 106 % of control and 111 % of control | endpoint: median survival time, dose: 0.5 mg/kg/injection, schedule: Q08HX024 (ip), vehicle: Klucel (hydroxypropylcellulose) (HPC), higher = longer survival 103 % of control and 115 % of control | endpoint: median survival time, dose: 0.5 mg/kg/injection, schedule: Q08HX024 (ip), vehicle: saline, higher = longer survival 103 % of control | endpoint: median survival time, dose: 1.0 mg/kg/injection, schedule: Q08HX024 (ip), vehicle: Klucel (hydroxypropylcellulose) (HPC), higher = longer survival 119 % of control | endpoint: median survival time, dose: 1.0 mg/kg/injection, schedule: Q08HX024 (ip), vehicle: saline, higher = longer survival 91 % of control | endpoint: median survival time, dose: 2.4 mg/kg/injection, schedule: Q01DX001 (ip), vehicle: other, higher = longer survival 120 % of control | endpoint: median survival time, dose: 4.0 mg/kg/injection, schedule: Q01DX009 (ip), vehicle: saline with Tween-80, higher = longer survival 112 % of control | endpoint: median survival time, dose: 4.7 mg/kg/injection, schedule: Q01DX001 (ip), vehicle: other, higher = longer survival 109 % of control | endpoint: median survival time, dose: 5.0 mg/kg/injection, schedule: Q01DX001 (ip), vehicle: Klucel (hydroxypropylcellulose) (HPC), higher = longer survival 95 % of control and 106 % of control and 123 % of control | endpoint: median survival time, dose: 8.0 mg/kg/injection, schedule: Q01DX009 (ip), vehicle: saline with Tween-80, higher = longer survival 120 % of control | endpoint: median survival time, dose: 9.5 mg/kg/injection, schedule: Q01DX001 (ip), vehicle: other, higher = longer survival 105 % of control | endpoint: median survival time, dose: 10.0 mg/kg/injection, schedule: Q01DX001 (ip), vehicle: Klucel (hydroxypropylcellulose) (HPC), higher = longer survival 86 % of control and 91 % of control and 111 % of control | endpoint: median survival time, dose: 12.5 mg/kg/injection, schedule: Q01DX001 (ip), vehicle: Klucel (hydroxypropylcellulose) (HPC), higher = longer survival 93 % of control and 113 % of control | endpoint: median survival time, dose: 20.0 mg/kg/injection, schedule: Q01DX001 (ip), vehicle: Klucel (hydroxypropylcellulose) (HPC), higher = longer survival 97 % of control and 115 % of control | endpoint: median survival time, dose: 25.0 mg/kg/injection, schedule: Q01DX001 (ip), vehicle: Klucel (hydroxypropylcellulose) (HPC), higher = longer survival 108 % of control | endpoint: median survival time, dose: 27.0 mg/kg/injection, schedule: Q11DX002 (ip), vehicle: Klucel (hydroxypropylcellulose) (HPC), higher = longer survival 111 % of control | endpoint: median survival time, dose: 32.0 mg/kg/injection, schedule: Q01DX009 (ip), vehicle: Klucel (hydroxypropylcellulose) (HPC), higher = longer survival 94 % of control | endpoint: median survival time, dose: 33.0 mg/kg/injection, schedule: Q01DX001 (ip), vehicle: carboxymethylcellulose (CMC), higher = longer survival 102 % of control | endpoint: median survival time, dose: 33.0 mg/kg/injection, schedule: Q08DX002 (ip), vehicle: carboxymethylcellulose (CMC), higher = longer survival 100 % of control | endpoint: median survival time, dose: 33.0 mg/kg/injection, schedule: Q12DX002 (ip), vehicle: carboxymethylcellulose (CMC), higher = longer survival 102 % of control | endpoint: median survival time, dose: 40.0 mg/kg/injection, schedule: Q11DX002 (ip), vehicle: Klucel (hydroxypropylcellulose) (HPC), higher = longer survival 79 % of control and 97 % of control | endpoint: median survival time, dose: 40.0 mg/kg/injection, schedule: Q11DX002 (oral), vehicle: Klucel (hydroxypropylcellulose) (HPC), higher = longer survival 86 % of control | endpoint: median survival time, dose: 50.0 mg/kg/injection, schedule: Q01DX001 (ip), vehicle: Klucel (hydroxypropylcellulose) (HPC), higher = longer survival 67 % of control | endpoint: median survival time, dose: 50.0 mg/kg/injection, schedule: Q01DX001 (ip), vehicle: carboxymethylcellulose (CMC), higher = longer survival 100 % of control | endpoint: median survival time, dose: 50.0 mg/kg/injection, schedule: Q08DX002 (ip), vehicle: carboxymethylcellulose (CMC), higher = longer survival 92 % of control | endpoint: median survival time, dose: 50.0 mg/kg/injection, schedule: Q10DX002 (ip), vehicle: carboxymethylcellulose (CMC), higher = longer survival 103 % of control | endpoint: median survival time, dose: 50.0 mg/kg/injection, schedule: Q12DX002 (ip), vehicle: carboxymethylcellulose (CMC), higher = longer survival 115 % of control | endpoint: median survival time, dose: 60.0 mg/kg/injection, schedule: Q11DX002 (ip), vehicle: Klucel (hydroxypropylcellulose) (HPC), higher = longer survival 53 % of control and 113 % of control | endpoint: median survival time, dose: 60.0 mg/kg/injection, schedule: Q11DX002 (oral), vehicle: Klucel (hydroxypropylcellulose) (HPC), higher = longer survival 90 % of control | endpoint: median survival time, dose: 75.7 mg/kg/injection, schedule: Q01DX001 (ip), vehicle: other, higher = longer survival 124 % of control | endpoint: median survival time, dose: 80.0 mg/kg/injection, schedule: Q01DX001 (ip), vehicle: Klucel (hydroxypropylcellulose) (HPC), higher = longer survival 112 % of control | endpoint: median survival time, dose: 90.0 mg/kg/injection, schedule: Q11DX002 (oral), vehicle: Klucel (hydroxypropylcellulose) (HPC), higher = longer survival 75 % of control | endpoint: median survival time, dose: 160.0 mg/kg/injection, schedule: Q01DX001 (ip), vehicle: Klucel (hydroxypropylcellulose) (HPC), higher = longer survival 110 % of control
66 % of control: endpoint: median tumor weight (est.), dose: 4.0 mg/kg/injection, schedule: Q01DX009 (ip), vehicle: Klucel (hydroxypropylcellulose) (HPC), higher = larger tumour
46 % of control: endpoint: median tumor weight (est.), dose: 8.0 mg/kg/injection, schedule: Q01DX009 (ip), vehicle: Klucel (hydroxypropylcellulose) (HPC), higher = larger tumour | endpoint: median tumor weight (est.), dose: 38.0 mg/kg/injection, schedule: Q01DX001 (ip), vehicle: carboxymethylcellulose (CMC), higher = larger tumour

— PubChem BioAssay AID270 (DTP/NCI, 2004)
